≈ marks a conversion by molar mass, not a printed value. *1 amine or outer side, *2 acyl side, *3 side chain or, on linkers, in order; H or OH if unused. Where a SMILES comes first, the peptide text is derived from it. [ ]: non-standard residue; d: D form. dAla(ψthiazole) = C[C@@H](N[*:1])c1nc(C(=O)[*:2])cs1; Trp(4-OMe) = COc1cccc2[nH]cc(C[C@H](N)C(=O)O)c12; X1 = CC(=O)[C@](C)(N[*:1])C(=O)[*:2]; Dhb = C/C=C(\N)C(=O)O; Sar = CNCC(=O)O
Key:
[1] = system: Hepatitis C virus; assay: Antiviral activity against HCV infected in human Huh7.5 cells assessed as reduction in viral RNA level measured after 72 hrs by RT-PCR analysis; format: functional, organism-based, Hepacivirus hominis; details: Huh7.5, 72 h
[2] = Cytotoxicity against human Huh7.5 cells; format: toxicity, cell-based, Huh-7.5
[3] = Selectivity index, ratio of CC50 for human Huh7.5 cells to EC50 for antiviral activity against HCV infected in human Huh7.5 cells; format: toxicity, cell-based; details: read-out: Ratio CC50/EC50
[4] = system: Staphylococcus aureus; assay: Antibacterial activity against methicillin-resistant Staphylococcus aureus R6101 measured after 24 hrs by broth microdilution method; format: functional
[5] = system: Morganella morganii; assay: Antibacterial activity against multidrug-resistant Morganella morganii KL-225 measured after 24 hrs by broth microdilution method; format: functional
[6] = system: Staphylococcus epidermidis; assay: Antibacterial activity against Staphylococcus epidermidis ATCC12228 measured after 24 hrs by broth microdilution method; format: functional
[7] = system: Staphylococcus aureus; assay: Antibacterial activity against methicillin-sensitive Staphylococcus aureus ATCC29213 measured after 24 hrs by broth microdilution method; format: functional
[8] = system: Staphylococcus aureus; assay: Antibacterial activity against methicillin-resistant Staphylococcus aureus ATCC33591 measured after 24 hrs by broth microdilution method; format: functional
[9] = system: Bacillus subtilis; assay: Antibacterial activity against Bacillus subtilis ATCC6633 measured after 24 hrs by broth microdilution method; format: functional
[10] = system: Morganella morganii; assay: Antibacterial activity against beta-lactamase-producing Morganella morganii ATCC25830 measured after 24 hrs by broth microdilution method; format: functional
[11] = system: Klebsiella pneumoniae; assay: Antibacterial activity against Klebsiella pneumoniae ATCC700603 measured after 24 hrs by broth microdilution method; format: functional
[12] = system: Pseudomonas aeruginosa; assay: Antibacterial activity against Pseudomonas aeruginosa ATCC27853 measured after 24 hrs by broth microdilution method; format: functional
[13] = system: Escherichia coli; assay: Antibacterial activity against Escherichia coli measured after 24 hrs by broth microdilution method; format: functional
[14] = system: Influenza A virus; assay: Antiviral activity against Influenza A virus A/WSN/33(H1N1) infected in HEK293T cells pretreated for 2 hrs followed by viral infection and measured after 24 hrs by Gaussia luciferase assay; format: functional, organism-based; details: HEK-293T

Structure (SMILES): CC(C)OC(=O)[C@H](C)N[P@@](=O)(OC[C@H]1O[C@@H](n2ccc(=O)[nH]c2=O)[C@](C)(F)[C@@H]1O)Oc1ccccc1
- EC50 [1]: 0.06 µM
- CC50 [2]: > 200 µM
- selectivity ratio [3]: > 3330

Structure (SMILES): C/C=C1\NC(=O)[C@@H](C)NC(=O)CNC(=O)[C@](C)(C(C)=O)NC(=O)[C@H](Cc2c[nH]c3cccc(OC)c23)NC(=O)c2csc(n2)[C@@H](C)NC(=O)CN(C)C1=O (cyclo([Dhb][Sar][dAla(ψthiazole)][Trp(4-OMe)][X1]G[dA]))
- EC50 [1]: 2.2 µM
- CC50 [2]: > 36.5 µM
- selectivity ratio [3]: > 16.6

Structure (SMILES): CN[C@H](CC(C)C)C(=O)N[C@H]1C(=O)N[C@@H](CC(N)=O)C(=O)N[C@H]2C(=O)N[C@H]3C(=O)N[C@H](C(=O)N[C@H](C(=O)O)c4cc(O)cc(O)c4-c4cc3ccc4O)[C@H](O)c3ccc(c(Cl)c3)Oc3cc2cc(c3O[C@@H]2O[C@H](CO)[C@@H](O)[C@H](O)[C@H]2O[C@H]2C[C@](C)(N)[C@H](O)[C@H](C)O2)Oc2ccc(cc2Cl)[C@H]1O [VANCOMYCIN]
- MIC [4]: > 160 µg/mL
- MIC [5]: > 160 µg/mL
- MIC [6]: 1.25 µg/mL (≈ 0.863 µM)
- MIC [7]: 1.25 µg/mL (≈ 0.863 µM)
- MIC [8]: 0.62 µg/mL (≈ 0.428 µM)
- MIC [9]: < 0.078 µg/mL
- MIC [10]: > 160 µg/mL

Structure (SMILES): C/C=C1\NC(=O)[C@@H](CC)NC(=O)CNC(=O)[C@](C)(C(C)=O)NC(=O)[C@H](Cc2c[nH]c3cccc(OC)c23)NC(=O)c2csc(n2)[C@@H](C)NC(=O)CN(C)C1=O
- EC50 [1]: 6.3 µM
- MIC [4]: 10 µg/mL (≈ 12.8 µM)
- MIC [5]: 20 µg/mL (≈ 25.6 µM)
- MIC [11]: > 160 µg/mL
- CC50 [2]: > 111 µM
- MIC [12]: > 160 µg/mL
- MIC [13]: > 160 µg/mL
- MIC [6]: 2.5 µg/mL (≈ 3.21 µM)
- MIC [7]: 2.5 µg/mL (≈ 3.21 µM)
- MIC [8]: 0.31 µg/mL (≈ 0.397 µM)
- MIC [9]: > 160 µg/mL
- MIC [10]: 20 µg/mL (≈ 25.6 µM)
- selectivity ratio [3]: > 17.7

Structure (SMILES): C/C=C1\NC(=O)[C@@H](CC)NC(=O)CNC(=O)[C@](C)(C(C)=O)NC(=O)[C@H](Cc2c[nH]c3cccc(OC)c23)NC(=O)c2csc(n2)[C@@H](C)NC(=O)CNC1=O
- EC50 [1]: 98.5 µM
- MIC [4]: > 160 µg/mL
- MIC [5]: > 160 µg/mL
- MIC [11]: > 160 µg/mL
- CC50 [2]: > 106 µM
- MIC [12]: > 160 µg/mL
- EC50 [14]: > 50 µM
- MIC [13]: > 160 µg/mL
- MIC [6]: 160 µg/mL (≈ 209 µM)
- MIC [7]: > 160 µg/mL
- MIC [8]: 160 µg/mL (≈ 209 µM)
- MIC [9]: > 160 µg/mL
- MIC [10]: > 160 µg/mL
- selectivity ratio [3]: > 1.1

Structure (SMILES): C=C1NC(=O)[C@@H](CC)NC(=O)CNC(=O)[C@](C)(C(C)=O)NC(=O)[C@H](Cc2c[nH]c3cccc(OC)c23)NC(=O)c2csc(n2)[C@@H](C)NC(=O)CN(C)C1=O
- MIC [4]: 40 µg/mL (≈ 52.2 µM)
- MIC [5]: 40 µg/mL (≈ 52.2 µM)
- MIC [11]: > 160 µg/mL
- MIC [12]: > 160 µg/mL
- EC50 [14]: > 50 µM
- MIC [13]: > 160 µg/mL
- MIC [6]: 5 µg/mL (≈ 6.53 µM)
- MIC [7]: 10 µg/mL (≈ 13.1 µM)
- MIC [8]: 1.25 µg/mL (≈ 1.63 µM)
- MIC [9]: > 160 µg/mL
- MIC [10]: 40 µg/mL (≈ 52.2 µM)

Structure (SMILES): C/C=C1\NC(=O)[C@@H](C)NC(=O)CNC(=O)[C@](C)(C(C)=O)NC(=O)[C@H](Cc2c[nH]c3cccc(OC)c23)NC(=O)c2csc(n2)[C@@H](C)NC(=O)CNC1=O
- EC50 [1]: 46.9 µM
- MIC [4]: > 160 µg/mL
- MIC [5]: > 160 µg/mL
- MIC [11]: > 160 µg/mL
- CC50 [2]: > 200 µM
- MIC [12]: > 160 µg/mL
- EC50 [14]: > 50 µM
- MIC [13]: > 160 µg/mL
- MIC [6]: > 160 µg/mL
- MIC [7]: > 160 µg/mL
- MIC [8]: > 160 µg/mL
- MIC [9]: > 160 µg/mL
- MIC [10]: > 160 µg/mL
- selectivity ratio [3]: > 4.3

Structure (SMILES): Cc1onc(-c2ccccc2)c1C(=O)N[C@@H]1C(=O)N2[C@@H]1SC(C)(C)[C@@H]2C(=O)O [OXACILLIN]
- MIC [4]: > 160 µg/mL
- MIC [5]: > 160 µg/mL
- MIC [6]: 0.16 µg/mL (≈ 0.399 µM)
- MIC [7]: 0.078 µg/mL (≈ 0.194 µM)
- MIC [8]: 80 µg/mL (≈ 199 µM)
- MIC [9]: < 0.078 µg/mL
- MIC [10]: 40 µg/mL (≈ 99.6 µM)

Structure (SMILES): C/C=C1\NC(=O)[C@@H](CC)NC(=O)CNC(=O)[C@](C)([C@@H](C)O)NC(=O)[C@H](Cc2c[nH]c3cccc(OC)c23)NC(=O)c2csc(n2)[C@@H](C)NC(=O)CN(C)C1=O
- MIC [4]: 40 µg/mL (≈ 51.2 µM)
- MIC [5]: > 160 µg/mL
- MIC [11]: > 160 µg/mL
- MIC [12]: > 160 µg/mL
- EC50 [14]: > 50 µM
- MIC [13]: > 160 µg/mL
- MIC [6]: 0.62 µg/mL (≈ 0.793 µM)
- MIC [7]: 10 µg/mL (≈ 12.8 µM)
- MIC [8]: 1.25 µg/mL (≈ 1.6 µM)
- MIC [9]: > 160 µg/mL
- MIC [10]: 160 µg/mL (≈ 205 µM)

Structure (SMILES): C/C=C1\NC(=O)[C@@H](CC)NC(=O)CNC(=O)[C@](C)([C@H](C)O)NC(=O)[C@H](Cc2c[nH]c3cccc(OC)c23)NC(=O)c2csc(n2)[C@@H](C)NC(=O)CN(C)C1=O
- EC50 [1]: 98.6 µM
- MIC [4]: 40 µg/mL (≈ 51.2 µM)
- MIC [5]: 160 µg/mL (≈ 205 µM)
- MIC [11]: > 160 µg/mL
- CC50 [2]: > 200 µM
- MIC [12]: > 160 µg/mL
- EC50 [14]: > 50 µM
- MIC [13]: > 160 µg/mL
- MIC [6]: 1.25 µg/mL (≈ 1.6 µM)
- MIC [7]: 20 µg/mL (≈ 25.6 µM)
- MIC [8]: 2.5 µg/mL (≈ 3.2 µM)
- MIC [9]: > 160 µg/mL
- MIC [10]: 80 µg/mL (≈ 102 µM)
- selectivity ratio [3]: > 2

Structure (SMILES): C/C=C1\NC(=O)[C@@H](C)NC(=O)CNC(=O)[C@@H](CC)NC(=O)[C@H](Cc2c[nH]c3cccc(OC)c23)NC(=O)c2csc(n2)[C@@H](C)NC(=O)CN(C)C1=O
- MIC [4]: > 160 µg/mL
- MIC [5]: > 160 µg/mL
- MIC [11]: > 160 µg/mL
- MIC [12]: > 160 µg/mL
- EC50 [14]: > 50 µM
- MIC [13]: > 160 µg/mL
- MIC [6]: > 160 µg/mL
- MIC [7]: > 160 µg/mL
- MIC [8]: > 160 µg/mL
- MIC [9]: > 160 µg/mL
- MIC [10]: > 160 µg/mL

Structure (SMILES): C[C@H]1COc2c(N3CCN(C)CC3)c(F)cc3c(=O)c(C(=O)O)cn1c23.C[C@H]1COc2c(N3CCN(C)CC3)c(F)cc3c(=O)c(C(=O)O)cn1c23.O [LEVOFLOXACIN]
- MIC [4]: 5 µg/mL
- MIC [5]: 5 µg/mL
- MIC [6]: 0.16 µg/mL
- MIC [7]: 0.078 µg/mL
- MIC [8]: 0.078 µg/mL
- MIC [9]: < 0.078 µg/mL
- MIC [10]: < 0.078 µg/mL

Structure (SMILES): CO[C@H]1/C=C/O[C@@]2(C)Oc3c(C)c(O)c4c(O)c(c(/C=N/N5CCN(C)CC5)c(O)c4c3C2=O)NC(=O)/C(C)=C\C=C\[C@H](C)[C@H](O)[C@@H](C)[C@@H](O)[C@@H](C)[C@H](OC(C)=O)[C@@H]1C [RIFAMPIN]
- MIC [4]: 10 µg/mL (≈ 12.2 µM)
- MIC [5]: 10 µg/mL (≈ 12.2 µM)
- MIC [6]: < 0.078 µg/mL
- MIC [7]: < 0.078 µg/mL
- MIC [8]: < 0.078 µg/mL
- MIC [9]: < 0.078 µg/mL
- MIC [10]: 10 µg/mL (≈ 12.2 µM)
